Results: patent US20080032992A1, “New Pyridine Analogues V” (ASTRAZENECA AB, priority 2006, published 2008)

Target: T1, P2Y12 receptor (Homo sapiens, UniProt Q9H244)
T1 construct: expressed in transfected cells; host or cells: CHO cells (membranes)
Experiment: Functional inhibition of 2-Me-S-ADP induced P2Y12 signalling (35S-GTPγS binding, membranes from P2Y12 transfected CHO-cells)
Assay type: biochemical
Conditions: EC80 concentration of agonist 2-methyl-thio-adenosine diphosphate, 30° C. for 45 min
Experimental: Functional inhibition of the P2Y12 receptor can be measured by in vitro assays using cell membranes from P2Y12 transfected CHO-cells, the methodology is indicated below.
Functional inhibition of 2-Me-S-ADP induced P2Y12 signalling: 5 μg of membranes were diluted in 200 μl of 200 mM NaCl, 1 mM MgCl2, 50 mM HEPES (pH 7.4), 0.01% BSA, 30 μg/ml saponin and 10 μM GDP. To this was added an EC80 concentration of agonist (2-methyl-thio-adenosine diphosphate), the required concentration of test compound and 0.1 μCi ^35S-GTPγS. The reaction was allowed to proceed at 30° C. for 45 min. Samples were then transferred on to GF/B filters using a cell harvester and washed with wash buffer (50 mM Tris (pH 7.4), 5 mM MgCl2, 50 mM NaCl). Filters were then covered with scintillate and counted for the amount of ^35S-GTPγS retained by the filter. Maximum activity was that determined in the presence of the agonist and minimum activity in the absence of the agonist following subtraction of the value determined for non-specific activity. The effect of compounds at various concentrations was plotted according to the equation y=A+((B−A)/(1+((C/x)ˆD))) and IC50 estimated where
A is the bottom plateau of the curve i.e. the final minimum y value
B is the top of the plateau of the curve i.e. the final maximum y value
C is the x value at the middle of the curve. This represents the log EC50 value when A+B=100 […]

T1 sequence (Q9H244 whole entry): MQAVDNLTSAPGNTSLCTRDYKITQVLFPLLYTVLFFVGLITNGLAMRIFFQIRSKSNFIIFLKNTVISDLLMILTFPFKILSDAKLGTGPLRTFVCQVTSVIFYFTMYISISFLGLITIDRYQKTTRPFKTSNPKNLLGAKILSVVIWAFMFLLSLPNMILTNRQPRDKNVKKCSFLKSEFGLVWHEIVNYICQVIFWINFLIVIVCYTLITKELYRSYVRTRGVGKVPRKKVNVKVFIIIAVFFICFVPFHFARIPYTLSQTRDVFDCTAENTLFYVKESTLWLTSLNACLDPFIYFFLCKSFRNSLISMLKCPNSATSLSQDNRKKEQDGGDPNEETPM

IC50 [nM] | Compound
330 | CCOC(=O)c1cc(C#N)c(N2CCC(c3nnc(-c4ccccc4)[nH]3)CC2)nc1C [Example 3, Ethyl 5-cyano-2-methyl-6-[4-(5-phenyl-4-h-1,2,4-triazol-3-yl)piperidin-1-yl]nicotinate]
690 | CCOC(=O)c1cc(C#N)c(N2CCN(Cc3cn(-c4ccccc4)nn3)CC2)nc1C [Example 2, Ethyl 5-cyano-2-methyl-6-{4-[(1-phenyl-1H-1,2,3-triazol-4-yl)methyl]piperazin-1-yl}nicotinate]
